Values joined by “and” are separate entries in the source; they are usually repeats but may differ in a detail not shown here. Equal entries are not always repeated.
System: 521955-158-R2-J5-PDC complex spheroid viability
Experiment: Anticancer human tumor 521955-158-R2-J5-PDC patient-derived pancreatic carcinoma cell line growth inhibition
Details: for viability, T/C: stronger effect = lower value; active means viability on the fitted dose curve at most 10% of control; inactive means the rest
Outline: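 Complex spheroids of tumor cells with HUVEC and human MSCs, exposed to iadademstat combined with other agents. Each agent tested in half-log steps from near clinical Cmax (else 10 microM top), DMSO ≤0.25%.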

[1] = curve of first compound, second compound 0.1 µM
[2] = curve of first compound, second compound 0.316 µM
[3] = curve of first compound, second compound 1 µM
[4] = curve of first compound, second compound 3.16 µM
[5] = curve of first compound, second compound 10 µM
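Further: spheroids exposed to agents for seven days.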
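Wherever viability, T/C is given: percent of DMSO vehicle control luminescence viability.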

Nc1ncn(C2CC(O)C(CO)O2)c(=O)n1 (stereo unspecified)
inactive: viability, T/C (compound 0.00316 µM) 99.5% and 107% | viability, T/C (compound 0.01 µM) 103% and 102% | viability, T/C (compound 0.0316 µM) 96.7% and 96.2% | viability, T/C (compound 0.1 µM) 81.8% and 84.8% | viability, T/C (compound 0.316 µM) 79% and 74.5% | viability, T/C (compound 1 µM) 64.4% and 52.7%
> 1000 nM: IC50 (curve of compound)

Nc1ncn(C2CC(O)C(CO)S2)c(=O)n1 (stereo unspecified)
inactive: viability, T/C (compound 0.000949 µM) 103% and 99.3% | viability, T/C (compound 0.003 µM) 105% and 110% | viability, T/C (compound 0.00949 µM) 104% and 105% | viability, T/C (compound 0.03 µM) 93.2% and 90.9% | viability, T/C (compound 0.0949 µM) 77.6% and 73.8% | viability, T/C (compound 0.3 µM) 41.2% and 53.5%
226 nM and > 300 nM: IC50 (curve of compound)

COc1cc(C2c3cc4c(cc3C(OC3OC5COC(C)OC5C(O)C3O)C3COC(=O)C23)OCO4)cc(OC)c1O (stereo unspecified) + NC1CC1c1ccc(-c2cccc(O)c2)cc1
227 nM: IC50 [2]
249 nM: IC50 [3]
198 nM: IC50 [1]
inactive: viability, T/C (second compound 0.1 µM, first compound 0.00949 µM) 86.6% | viability, T/C (second compound 0.1 µM, first compound 0.03 µM) 94.8% | viability, T/C (second compound 0.1 µM, first compound 0.0949 µM) 66.2% | viability, T/C (second compound 0.1 µM, first compound 0.3 µM) 39.9% | viability, T/C (second compound 0.1 µM, first compound 0.949 µM) 23% | viability, T/C (second compound 0.1 µM, first compound 3 µM) 15.3% | viability, T/C (second compound 0.316 µM, first compound 0.00949 µM) 87.3% | viability, T/C (second compound 0.316 µM, first compound 0.03 µM) 83.6% | viability, T/C (second compound 0.316 µM, first compound 0.0949 µM) 66.3% | viability, T/C (second compound 0.316 µM, first compound 0.3 µM) 44.6% | viability, T/C (second compound 0.316 µM, first compound 0.949 µM) 27.8% | viability, T/C (second compound 0.316 µM, first compound 3 µM) 19.2% | viability, T/C (second compound 1 µM, first compound 0.00949 µM) 84.2% | viability, T/C (second compound 1 µM, first compound 0.03 µM) 87.2% | viability, T/C (second compound 1 µM, first compound 0.0949 µM) 64% | viability, T/C (second compound 1 µM, first compound 0.3 µM) 47.1% | viability, T/C (second compound 1 µM, first compound 0.949 µM) 30.9% | viability, T/C (second compound 1 µM, first compound 3 µM) 20.2% | viability, T/C (second compound 3.16 µM, first compound 0.00949 µM) 89.4% | viability, T/C (second compound 3.16 µM, first compound 0.03 µM) 88.5% | viability, T/C (second compound 3.16 µM, first compound 0.0949 µM) 53.8% | viability, T/C (second compound 3.16 µM, first compound 0.3 µM) 44.4% | viability, T/C (second compound 3.16 µM, first compound 0.949 µM) 30.3% | viability, T/C (second compound 3.16 µM, first compound 3 µM) 19.8% | viability, T/C (second compound 10 µM, first compound 0.00949 µM) 95.9% | viability, T/C (second compound 10 µM, first compound 0.03 µM) 83.6% | viability, T/C (second compound 10 µM, first compound 0.0949 µM) 67.5% | viability, T/C (second compound 10 µM, first compound 0.3 µM) 49.8% | viability, T/C (second compound 10 µM, first compound 0.949 µM) 30.6% | viability, T/C (second compound 10 µM, first compound 3 µM) 27%
265 nM: IC50 [5]
181 nM: IC50 [4]

COc1cc(Nc2ncc3c(n2)-c2ccc(Cl)cc2C(c2c(F)cccc2OC)=NC3)ccc1C(=O)O + NC1CC1c1ccc(-c2cccc(O)c2)cc1
> 1000 nM: IC50 [1] | IC50 [2] | IC50 [3] | IC50 [4] | IC50 [5]
inactive: viability, T/C (second compound 0.1 µM, first compound 0.00316 µM) 67.5% | viability, T/C (second compound 0.1 µM, first compound 0.01 µM) 73.7% | viability, T/C (second compound 0.1 µM, first compound 0.0316 µM) 69.4% | viability, T/C (second compound 0.1 µM, first compound 0.1 µM) 67.2% | viability, T/C (second compound 0.1 µM, first compound 0.316 µM) 66.2% | viability, T/C (second compound 0.1 µM, first compound 1 µM) 61.2% | viability, T/C (second compound 0.316 µM, first compound 0.00316 µM) 65.9% | viability, T/C (second compound 0.316 µM, first compound 0.01 µM) 78.9% | viability, T/C (second compound 0.316 µM, first compound 0.0316 µM) 62.1% | viability, T/C (second compound 0.316 µM, first compound 0.1 µM) 72.1% | viability, T/C (second compound 0.316 µM, first compound 0.316 µM) 81.7% | viability, T/C (second compound 0.316 µM, first compound 1 µM) 59.3% | viability, T/C (second compound 1 µM, first compound 0.00316 µM) 75.1% | viability, T/C (second compound 1 µM, first compound 0.01 µM) 71.4% | viability, T/C (second compound 1 µM, first compound 0.0316 µM) 65.6% | viability, T/C (second compound 1 µM, first compound 0.1 µM) 82.5% | viability, T/C (second compound 1 µM, first compound 0.316 µM) 70.8% | viability, T/C (second compound 1 µM, first compound 1 µM) 71.7% | viability, T/C (second compound 3.16 µM, first compound 0.00316 µM) 66.4% | viability, T/C (second compound 3.16 µM, first compound 0.01 µM) 72% | viability, T/C (second compound 3.16 µM, first compound 0.0316 µM) 81.8% | viability, T/C (second compound 3.16 µM, first compound 0.1 µM) 72.2% | viability, T/C (second compound 3.16 µM, first compound 0.316 µM) 75.4% | viability, T/C (second compound 3.16 µM, first compound 1 µM) 66% | viability, T/C (second compound 10 µM, first compound 0.00316 µM) 69.5% | viability, T/C (second compound 10 µM, first compound 0.01 µM) 69.5% | viability, T/C (second compound 10 µM, first compound 0.0316 µM) 67.6% | viability, T/C (second compound 10 µM, first compound 0.1 µM) 63.1% | viability, T/C (second compound 10 µM, first compound 0.316 µM) 57.5% | viability, T/C (second compound 10 µM, first compound 1 µM) 71.6%

Nc1ccn(C2OC(CO)C(O)C2(F)F)c(=O)n1 (stereo unspecified)
inactive: viability, T/C (compound 0.000949 µM) 106% and 95.4% | viability, T/C (compound 0.003 µM) 112% and 89% | viability, T/C (compound 0.00949 µM) 97.3% and 98.3% | viability, T/C (compound 0.03 µM) 73.4% and 89.6% | viability, T/C (compound 0.0949 µM) 43% and 50.5% | viability, T/C (compound 0.3 µM) 12% and 17.5%
71.1 nM and 96.5 nM: IC50 (curve of compound)

From PubChem BioAssay AID1918937 (Molecular Pharmacology Branch, DTP, NCI, 2023)
